Test results from article PMC8708274, “Unveiling the Membrane and Cell Wall Action of Antimicrobial Cyclic Lipopeptides: Modulation of the Spectrum of Activity” (Pharmaceutics, 2021).
Where two headings read alike, the source gives them in different places. Positions of bridges follow the written chain, without caps; N, C: chain ends. Non-standard residues stand in square brackets, D forms with d. Residues, ends and D or L forms follow the SMILES beside them. *: point of attachment. Lauroyl = CCCCCCCCCCCC(=O)*; Decanoyl = CCCCCCCCCC(=O)*; Nonanoyl = CCCCCCCCC(=O)*; Nle = CCCC[C@H](N)C(=O)O; Octanoyl = CCCCCCCC(=O)*; Dab = NCC[C@H](N)C(=O)O; Hexanoyl = CCCCCC(=O)*

Assays:
[1] = Kinetics of insertion into monolayers; type: binding; details: 25 min after injection, 10 mM Tris pH 7.4, 25 °C, average of three independent experiments (error < 10%); for Increase in surface pressure (Δπ), POPE/POPG: POPE/POPG 6:4, initial pressure 32 mN·m^−1, peptide 0.48 μM; for Increase in surface pressure (Δπ), POPC / Increase in surface pressure (Δπ), POPG: initial pressure 32 mN·m^−1, peptide 0.48 μM
Protocol: (§1) Monolayer studies were performed at room temperature (25 °C) on a monolayer system (NIMA Technology, Coventry, UK) by using a cylindrical PTFE (Teflon®, Wilmington, DE, USA) trough (5 cm diameter) containing a continuously stirred aqueous phase (12 mL, 10 mM Tris pH 7.4) and a Wilhelmy platinum plate connected to an electrobalance. The system was enclosed in a Plexiglass box to reduce surface contamination, and before each run, the plate and the trough were cleaned with hot water at >70 °C to avoid carryover of lipid or peptide. Monolayers of POPG, POPE/POPG (6:4), POPC, or LPS were formed by applying small drops of the lipid stock solutions in CHCl3 on the aqueous subphase with a microsyringe (Hamilton Co., Reno, NV, USA) to achieve a surface pressure of 32 mN·m^−1. After 10 min, allowing for solvent evaporation, a known aliquot of peptide was added without disturbance of the monolayer via an inlet port, and the surface pressure was continuously monitored.

[2] = system: Escherichia coli ATTC 25922; type: cell-based
Protocol: (§2) The minimal peptide concentration required to prevent the growth of a given test organism was determined after incubation overnight at 37 °C and was defined as the MIC. Activity was determined in representative bacteria, Escherichia coli ATTC 25922, Pseudomonas aeruginosa ATTC 27853, and Staphylococcus aureus ATTC 25923, using the broth microdilution method. Serial-two-fold dilutions of peptide (from 0.06 to 32 μg/mL) were performed in Mueller–Hinton broth (MHB) culture medium in sterile 96-well polypropylene microtiter plates inoculated with a final concentration of 5 × 10^5 CFU·mL^−1 of bacteria in each well. Bacteria were in the pre-exponential phase. Each determination was done by triplicate. In order to be considered acceptable, the three MIC results have to differ in only in one well, and the result was always given as the higher of the three. Drug-free and microorganism-free wells were used as positive and negative controls, respectively. Bacterial growth was visually determined on the basis of turbidity.

[3] = system: Staphylococcus aureus ATTC 25923; type: cell-based
Protocol: as §2

[4] = system: Pseudomonas aeruginosa ATTC 27853; type: cell-based
Protocol: as §2

[5] = Kinetics of insertion into monolayers; type: binding, Salmonella enterica serotype Minnesota Re 595; details: initial pressure 32 mN·m^−1, peptide 0.48 μM, 25 min after injection, 10 mM Tris pH 7.4, 25 °C, average of three independent experiments (error < 10%)
Protocol: as §1

[6] = broth microdilution, MHB, 5 × 10^5 CFU/mL, overnight 37 °C, triplicate, higher of the three

| SMILES | Increase in surface pressure (Δπ), POPE/POPG [1] | Increase in surface pressure (Δπ), POPC [1] | Increase in surface pressure (Δπ), POPG [1] | MIC EC ([2]; ATTC 25922) | MIC EC [2, 6] | MIC SA ([3]; ATTC 25923) | MIC SA [3, 6] | MIC PA ([4]; ATTC 27853) | MIC PA [4, 6] | Increase in surface pressure (Δπ), LPS [5] |
| --- | --- | --- | --- | --- | --- | --- | --- | --- | --- | --- |
| CCCCCC(=O)N[C@@H](CCN)C(=O)N[C@H](C(=O)N[C@@H](CCN)C(=O)N[C@H]1CSSC[C@H](C(N)=O)NC(=O)[C@H](CCN)NC(=O)[C@H](CCN)NC(=O)[C@H](CC(C)C)NC(=O)[C@@H](Cc2ccccc2)NC(=O)[C@H](CCN)NC1=O)[C@@H](C)O [spB-1] (Hexanoyl-[Dab]T[Dab]C[Dab][dF]L[Dab][Dab][dC]-NH2; disulfide 4-10) | 4.6 mN·m^−1 | 0.9 mN·m^−1 | 5.7 mN·m^−1 | > 27 µM | > 32 µg/mL | > 27 µM | > 32 µg/mL | > 27 µM | > 32 µg/mL | 12.1 mN·m^−1 |
| CCCCCCCC(=O)N[C@@H](CCN)C(=O)N[C@H](C(=O)N[C@@H](CCN)C(=O)N[C@H]1CSSC[C@H](C(N)=O)NC(=O)[C@H](CCN)NC(=O)[C@H](CCN)NC(=O)[C@H](CC(C)C)NC(=O)[C@@H](Cc2ccccc2)NC(=O)[C@H](CCN)NC1=O)[C@@H](C)O [spB-2] (Octanoyl-[Dab]T[Dab]C[Dab][dF]L[Dab][Dab][dC]-NH2; disulfide 4-10) | 5.5 mN·m^−1 | 1.8 mN·m^−1 | 7.0 mN·m^−1 | 13 µM | 16 µg/mL | 26 µM | > 32 µg/mL | 6.6 µM | 8 µg/mL | 12.6 mN·m^−1 |
| CCCCCCCCCCCC(=O)N[C@@H](CCN)C(=O)N[C@H](C(=O)N[C@@H](CCN)C(=O)N[C@H]1CSSC[C@H](C(N)=O)NC(=O)[C@H](CCN)NC(=O)[C@H](CCN)NC(=O)[C@H](CC(C)C)NC(=O)[C@@H](Cc2ccccc2)NC(=O)[C@H](CCN)NC1=O)[C@@H](C)O [spB-4] (Lauroyl-[Dab]T[Dab]C[Dab][dF]L[Dab][Dab][dC]-NH2; disulfide 4-10) | 5.0 mN·m^−1 | 2.5 mN·m^−1 | 6.7 mN·m^−1 | 13 µM | 16 µg/mL | 6.3 µM | 8 µg/mL | 6.3 µM | 8 µg/mL | 12.2 mN·m^−1 |
| CCCCCCCC(=O)N[C@@H](CCN)C(=O)N[C@H](C(=O)N[C@@H](CCN)C(=O)N[C@H]1CSSC[C@H](C(N)=O)NC(=O)[C@H](CCN)NC(=O)[C@H](CCN)NC(=O)[C@H](CCCC)NC(=O)[C@@H](Cc2ccccc2)NC(=O)[C@H](CCN)NC1=O)[C@@H](C)O [spB-5] (Octanoyl-[Dab]T[Dab]C[Dab][dF][Nle][Dab][Dab][dC]-NH2; disulfide 4-10) | 6.5 mN·m^−1 | 0.8 mN·m^−1 | 7.3 mN·m^−1 | 1.7 µM | 2 µg/mL | > 26 µM | > 32 µg/mL | 3.3 µM | 4 µg/mL | 10.6 mN·m^−1 |
| CCCCCCCCC(=O)N[C@@H](CCN)C(=O)N[C@H](C(=O)N[C@@H](CCN)C(=O)N[C@H]1CSSC[C@H](C(N)=O)NC(=O)[C@H](CCN)NC(=O)[C@H](CCN)NC(=O)[C@H](CCCC)NC(=O)[C@@H](Cc2ccccc2)NC(=O)[C@H](CCN)NC1=O)[C@@H](C)O [spB-6] (Nonanoyl-[Dab]T[Dab]C[Dab][dF][Nle][Dab][Dab][dC]-NH2; disulfide 4-10) | 5.0 mN·m^−1 | 0.4 mN·m^−1 | 6.0 mN·m^−1 | 1.6 µM | 2 µg/mL | 13 µM | 16 µg/mL | 0.82 µM | 1 µg/mL | 10.8 mN·m^−1 |
| CCCCCCCCCCCC(=O)N[C@@H](CCN)C(=O)N[C@H](C(=O)N[C@@H](CCN)C(=O)N[C@H]1CSSC[C@H](C(N)=O)NC(=O)[C@H](CCN)NC(=O)[C@H](CCCNC(=N)N)NC(=O)[C@H](CCCC)NC(=O)[C@@H](Cc2ccccc2)NC(=O)[C@H](CCN)NC1=O)[C@@H](C)O [spB-9] (Lauroyl-[Dab]T[Dab]C[Dab][dF][Nle]R[Dab][dC]-NH2; disulfide 4-10) | 6.0 mN·m^−1 | 2.2 mN·m^−1 | 3.4 mN·m^−1 | 3.0 µM | 4 µg/mL | 1.5 µM | 2 µg/mL | 3.0 µM | 4 µg/mL | 11.1 mN·m^−1 |
| CCCCCC(=O)N[C@@H](CCN)C(=O)N[C@H](C(=O)N[C@@H](CCN)C(=O)N[C@H]1CSSC[C@H](C(N)=O)NC(=O)[C@H](CCN)NC(=O)[C@H](CCN)NC(=O)[C@H](CC(C)C)NC(=O)[C@@H](CC(C)C)NC(=O)[C@H](CCN)NC1=O)[C@@H](C)O [spE-1] (Hexanoyl-[Dab]T[Dab]C[Dab][dL]L[Dab][Dab][dC]-NH2; disulfide 4-10) | 4.1 mN·m^−1 | 0.3 mN·m^−1 | 2.8 mN·m^−1 | > 28 µM | > 32 µg/mL | > 28 µM | > 32 µg/mL | > 28 µM | > 32 µg/mL | 10.6 mN·m^−1 |
| CCCCCCCC(=O)N[C@@H](CCN)C(=O)N[C@H](C(=O)N[C@@H](CCN)C(=O)N[C@H]1CSSC[C@H](C(N)=O)NC(=O)[C@H](CCN)NC(=O)[C@H](CCN)NC(=O)[C@H](CC(C)C)NC(=O)[C@@H](CC(C)C)NC(=O)[C@H](CCN)NC1=O)[C@@H](C)O [spE-2] (Octanoyl-[Dab]T[Dab]C[Dab][dL]L[Dab][Dab][dC]-NH2; disulfide 4-10) | 6.4 mN·m^−1 | 0.6 mN·m^−1 | 4.3 mN·m^−1 | 14 µM | 16 µg/mL | > 27 µM | > 32 µg/mL | 3.4 µM | 4 µg/mL | 9.5 mN·m^−1 |
| CCCCCCCCCC(=O)N[C@@H](CCN)C(=O)N[C@H](C(=O)N[C@@H](CCN)C(=O)N[C@H]1CSSC[C@H](C(N)=O)NC(=O)[C@H](CCN)NC(=O)[C@H](CCN)NC(=O)[C@H](CC(C)C)NC(=O)[C@@H](CC(C)C)NC(=O)[C@H](CCN)NC1=O)[C@@H](C)O [spE-3] (Decanoyl-[Dab]T[Dab]C[Dab][dL]L[Dab][Dab][dC]-NH2; disulfide 4-10) | 7.9 mN·m^−1 | 1.3 mN·m^−1 | 5.7 mN·m^−1 | 6.7 µM | 8 µg/mL | 6.7 µM | 8 µg/mL | 1.7 µM | 2 µg/mL | 10.0 mN·m^−1 |
